# Experimental data as given in ChEMBL document CHEMBL1136188, “1H-Pyrazolo-[3,4-c]cyclophepta[1,2-c]thiophenes: a unique structural class of dopamine D4 selective ligands” (Bioorg Med Chem Lett, 2003).
# Target: D(2) dopamine receptor (Homo sapiens, UniProt P14416)
# Assay: Binding affinity towards cloned human Dopamine receptor D2 was determined
# Chain of D(2) dopamine receptor (P14416 whole entry): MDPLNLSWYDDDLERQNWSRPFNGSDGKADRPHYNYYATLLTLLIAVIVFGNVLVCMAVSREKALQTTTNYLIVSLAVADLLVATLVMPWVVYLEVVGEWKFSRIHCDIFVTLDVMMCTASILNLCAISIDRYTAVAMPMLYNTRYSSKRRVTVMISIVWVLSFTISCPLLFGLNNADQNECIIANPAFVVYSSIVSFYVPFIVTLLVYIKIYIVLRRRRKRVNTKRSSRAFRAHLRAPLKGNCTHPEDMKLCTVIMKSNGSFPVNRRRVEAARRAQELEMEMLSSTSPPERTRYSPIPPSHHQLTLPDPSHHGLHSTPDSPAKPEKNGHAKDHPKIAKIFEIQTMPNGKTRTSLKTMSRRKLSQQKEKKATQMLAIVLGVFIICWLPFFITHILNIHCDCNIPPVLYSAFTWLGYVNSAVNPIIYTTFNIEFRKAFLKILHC
row,Ki [nM],Compound
1,> 10000,CC(C)n1ncc2c1-c1c(Cl)sc(Cl)c1CCC2
2,> 10000,Cc1sc(C)c2c1CC(C)(C)Cc1c[nH]nc1-2
3,462,Cc1sc(C)c2c1CCc1cnn(C)c1-2
4,28,Cc1oc(C)c2c1CCCc1cnn(C)c1-2
5,176,Cc1sc(C)c2c1CCCc1cnn(C)c1-2
6,> 10000,Clc1sc(Cl)c2c1CCCc1cnn(Cc3ccccc3)c1-2
7,> 10000,Cc1sc(C)c2c1CCCc1nncn1-2
8,885,CCCn1ncc2c1-c1c(C)sc(C)c1CCC2
9,534,Clc1sc(Cl)c2c1CCCc1c[nH]nc1-2
10,489,CCn1ncc2c1-c1c(Cl)sc(Cl)c1CCC2

# Target: T1, D(4) dopamine receptor (Homo sapiens, UniProt P21917)
# T1 sequence (P21917 whole entry): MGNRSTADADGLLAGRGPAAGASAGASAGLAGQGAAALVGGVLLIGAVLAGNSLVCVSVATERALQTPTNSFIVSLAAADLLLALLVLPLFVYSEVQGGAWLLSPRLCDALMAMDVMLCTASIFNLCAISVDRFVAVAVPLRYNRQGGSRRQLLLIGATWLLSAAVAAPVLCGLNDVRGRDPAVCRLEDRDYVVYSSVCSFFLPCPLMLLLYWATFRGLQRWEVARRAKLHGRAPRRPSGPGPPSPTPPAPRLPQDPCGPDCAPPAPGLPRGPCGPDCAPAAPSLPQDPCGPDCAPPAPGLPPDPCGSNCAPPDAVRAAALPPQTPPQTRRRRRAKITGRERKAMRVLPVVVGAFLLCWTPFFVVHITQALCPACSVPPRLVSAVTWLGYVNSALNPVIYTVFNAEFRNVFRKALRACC
# Assay: Binding affinity to recombinant human dopamine receptor D4
row,Ki [nM],Compound
1,275,Cc1oc(C)c2c1CCCc1c[nH]nc1-2
2,2560,Cc1sc(C)c2c1CCCc1c-2n[nH]c1CN(C)C
3,2870,Cc1sc(C)c2c1CCc1cn(C)nc1-2
4,1560,CC(C)n1ncc2c1-c1c(Cl)sc(Cl)c1CCC2
5,> 10000,Cc1sc(C)c2c1CN(C)Cc1c[nH]nc1-2
6,1300,Cc1sc(C)c2c1CC(C)(C)Cc1c[nH]nc1-2
7,170,Cc1sc(C)c2c1CCc1c[nH]nc1-2
8,26,Cc1sc(C)c2c1CCc1cnn(C)c1-2
9,11,Cc1oc(C)c2c1CCCc1cnn(C)c1-2
10,2,Cc1sc(C)c2c1CCCc1cnn(C)c1-2
11,> 10000,Clc1sc(Cl)c2c1CCCc1cnn(Cc3ccccc3)c1-2
12,4320,Cc1sc(C)c2c1CCCc1nncn1-2
13,97,CCCn1ncc2c1-c1c(C)sc(C)c1CCC2
14,169,Clc1sc(Cl)c2c1CCCc1c[nH]nc1-2
15,168,CCn1ncc2c1-c1c(Cl)sc(Cl)c1CCC2
